Tests used:
Puccinia recondita = experiment: Puccinia test (wheat)/protective; format: in vivo; conditions: wheat plants, protective spray, application rate 1500 ppm, evaluation 7-9 days after inoculation
From the text: Puccinia Test (Wheat)/Protective
• Solvent: 49 parts by weight of N,N-dimethylformamide • Emulsifier: 1 part by weight of alkylaryl polyglycol ether
An appropriate preparation of active compound is produced by mixing 1 part by weight of active compound with the stated amounts of solvent and emulsifier and diluting the concentrate with water to the desired concentration. To test for protective activity, young wheat plants are sprayed with the preparation of active compound at the stated application rate. A day after the treatment, the plants are inoculated with a spore suspension of Puccinia recondita and then stand for 48 hours at 100% relative humidity and 22° C. Subsequently the plants stand at 80% relative humidity and a temperature of 20° C. After 7-9 days following inoculation, evaluation takes place. Here, 0% denotes an efficacy which corresponds to that of the control, whereas an efficacy of 100% means that no infestation is observed.

[1] = logP by HPLC on reversed-phase column (EEC Directive 79/831 Annex V.A8); format: physicochemical; conditions: reversed-phase C18 HPLC column, 43° C., acidic range pH 2.7 (0.1% formic acid/acetonitrile), read-out: Log P
Protocol: The logP values reported in the preparation examples and tables above are determined in accordance with EEC Directive 79/831 Annex V.A8 by means of HPLC (High Performance Liquid Chromatography) on a reversed-phase column (C18). Temperature: 43° C. The determination with the LC-MS in the acidic range takes place at a pH of 2.7 using 0.1% aqueous formic acid and acetonitrile (containing 0.1% formic acid) as eluents; linear gradient from 10% acetonitrile to 95% acetonitrile. Calibration takes place using unbranched alkan-2-ones (having 3 to 16 carbon atoms) of which the logP values are known (logP values determined on the basis of the retention times, by linear interpolation between two successive alkanones).

- chromatographic logP [1]: 4.6
Structure (SMILES): CC(C)(C)n1ncc2c(c1=O)Sc1c(cnn(C(C)(C)C)c1=O)S2 [Compound 7, 2,8-di-tert-butyl[1,4]dithilino[2,3-d:5,6-d′]dipyridazine-1,9(2H,8H)-dione]
- Efficacy in % (Puccinia recondita): 70%

Source: patent US8916703B2, “Dithiinopyridazinone derivates” (Bayer Intellectual Property GmbH, priority 2010, dated 2014)
